Reference: article PMC9804084, “Multiple drug transporters contribute to the brain transfer of levofloxacin” (CNS Neuroscience & Therapeutics, 2022)
Like-named read-outs stand apart in the source and are kept apart here.

How the values were obtained:
P-glycoprotein (P-gp) = assay: In vivo microdialysis pharmacokinetics of LVFX with P-gp inhibitor Tariquidar; parameters: species or system rat; details: for MRT / Tmax / AUC(0-inf) / Cmax / half-life / AUC(0-t) / Kp: rat, intravenous, with Tariquidar 8 mg/kg i.p., TAR group, Tariquidar 8 mg/kg i.p. + LVFX 50 mg/kg, N=5; for MRT / AUC(0-inf) / Cmax / half-life / AUC(0-t): mean ± SD; for AUC(0-t): read-out: AUC0–180 (converted)
Description: (§1) On the day of surgery, rats were anesthetized using inhaled isoflurane via a facemask. The rats were placed in a stereotaxic frame (Gene&I), and the body temperature was maintained with a homoeothermic blanket set at 37°C. A midline incision was made to expose the skull. According to the Paxinos and Watson atlas, two microdialysis intracerebral guide cannulae (Eicom Co.) were implanted into the hippocampus CA1 region (Hp‐CA1 coordinates: AP −4.16 mm; ML −2.2 mm; DV −2.9 mm) and lateral ventricle (LV coordinates: AP −1.4 mm; ML +2.2 mm; DV −3.4 mm). Fixed to the skull using a screw and dental cement. After 3 days of recovery, the rats were anesthetized with isoflurane again. An intravascular probe (TP‐100‐20; 20 mm, Eicom Co.) was implanted into the jugular vein toward the right atrium. After the blood microdialysis probe was positioned within the jugular vein, the pipeline was connected to perfuse with ACD solution (citric acid 3.5 mM; sodium citrate 7.5 mM; dextrose 13.6 mM) at a flow rate of […], and the Hamilton microinjection pump was used for continuous perfusion. After stopping isoflurane inhalation, the rats were allowed to wake up naturally on the homoeothermic blanket. The awake rats were placed in a device that allowed them to move freely. Animals were allowed to recover for an additional 24 h.
(§2) All microdialysate concentrations (C m) from the hippocampal ECF and lateral ventricle CSF were converted to the unbound drug concentration (C u) at the target site using the following formula: C u = C m/R dial.
(§3) A total of 32 rats were randomly divided into the following groups: • Control group, N = 12: vehicle solution + LVFX (50 mg/kg). • TAR group, N = 5: Tariquidar (8 mg/kg) + LVFX (50 mg/kg). • Ko143 group, N = 5: Ko143 (15 mg/kg) + LVFX (50 mg/kg). • MK571 group, N = 5: MK571 (20 mg/kg) + LVFX (50 mg/kg). • PRO group, N = 5: Probenecid (50 mg/kg) + LVFX (50 mg/kg).
(§4) Levofloxacin was freshly dissolved in isotonic saline and administered via tail vein injection. Thirty minutes before LVFX administration, the intervention drugs of each group were injected intraperitoneally. To reduce the possible effect of solvents on BBB or BCSFB permeability of LVFX, we prioritized water as the solvent. However, Tariquidar and Ko143 are insoluble in water, and a cosolvent must be used to prepare agents that animals can tolerate. According to the different physicochemical properties of these four inhibitors, the preparation of each transporter inhibitor solution in this experiment was as follows. • P‐glycoprotein (P‐gp) inhibitor Tariquidar[22]: Tariquidar was freshly dissolved in DMSO to 8 mg/ml and then diluted to 4 mg/ml with a solution containing 10% Tween‐80, 25% PEG300, and 65% sterile water. • Breast cancer resistance protein (BCRP) inhibitor Ko143[23]: Ko143 was freshly dissolved in DMSO to 15 mg/ml and then diluted to 7.5 mg/ml with a solution containing 10% Tween‐80, 25% PEG300, and 65% sterile water. • Multidrug resistance‐associated proteins (MRPs) inhibitor MK571[24]: MK571 sodium salt hydrate was dissolved in 1.25% (w/v) aq sodium hydrogen carbonate (NaHCO3) solution to obtain a concentration of 10 mg/ml. • Organic anion transporters (OATs) inhibitor probenecid[25]: Probenecid was dissolved in NaOH (pH = 9.0–9.2) alkalized physiological saline to obtain a concentration of 25 mg/ml.
(§5) The pipelines where the blood and brain probes were installed were perfused at the speed of 2 μl/min with ACD solution and ACSF, respectively. Two brain probes were inserted into guide cannulas of the target site and allowed to equilibrate for 1 h. Subsequently, the rats were treated according to their corresponding groups in the device where they could move freely. Microdialyses samples were collected every 15 min using a fraction collector (EFC‐96, Eicom Co.) for 3 h and stored at 4°C until analysis. Finally, rats were anesthetized and decapitated, and their brain was harvested.

[1] = system: T1, Breast cancer resistance protein (BCRP); assay: In vivo microdialysis pharmacokinetics of LVFX with BCRP inhibitor Ko143; details: rat, intravenous, with Ko143 15 mg/kg i.p., 30 min before LVFX, Ko143 group, Ko143 15 mg/kg i.p. + LVFX 50 mg/kg, N=5
T1 construct: from tissue; host or cells: living rat (blood-brain barrier, choroid plexus)
Description: as §1, §2, §3, §4, §5

[2] = CSF (lateral ventricle microdialysate, unbound), CSF
[3] = brain ECF (hippocampal microdialysate, unbound), 30 min before LVFX, brain ECF

- change in LVFX in the rat brain after Tariquidar (P-glycoprotein (P-gp); Tariquidar 8 mg/kg i.p. + LVFX 50 mg/kg vs control group): no significant change
- MRT (P-glycoprotein (P-gp); CSF (lateral ventricle microdialysate, unbound), 30 min before LVFX, CSF): 80 min
- Tmax (P-glycoprotein (P-gp); [2]): 15 min
- AUC(0-inf) (P-glycoprotein (P-gp); [2]): 4540 ng·h/mL
- Cmax (P-glycoprotein (P-gp); [2]): 3590 ± 280 ng/mL
- half-life (P-glycoprotein (P-gp); [2]): 50.5 ± 18.6 min
- AUC(0-t) (P-glycoprotein (P-gp); [2]): 3900 ng·h/mL
- Kp (P-glycoprotein (P-gp); CSF / blood (unbound, microdialysate), 30 min before LVFX, AUCu,CSF/AUCu,blood, read-out: K p,uu,CSF): 0.37 ± 0.013
- Tmax (P-glycoprotein (P-gp); [3]): 15 min
- AUC(0-inf) (P-glycoprotein (P-gp); [3]): 4580 ng·h/mL
- Cmax (P-glycoprotein (P-gp); [3]): 2810 ± 450 ng/mL
- MRT (P-glycoprotein (P-gp); [3]): 86.1 min
- half-life (P-glycoprotein (P-gp); [3]): 52.9 ± 9.83 min
- AUC(0-t) (P-glycoprotein (P-gp); [3]): 4100 ng·h/mL
- Kp (P-glycoprotein (P-gp); brain ECF / blood, 30 min before LVFX, AUCu,ECF/AUCu,blood, read-out: K p,uu,ECF): 0.368 ± 0.035
- Tmax (P-glycoprotein (P-gp); 30 min before LVFX, blood): 15 min
- AUC(0-inf) (P-glycoprotein (P-gp); 30 min before LVFX, blood): 11800 ng·h/mL
- Cmax (P-glycoprotein (P-gp); 30 min before LVFX, blood): 10400 ± 760 ng/mL
- MRT (P-glycoprotein (P-gp); 30 min before LVFX, blood): 69.2 min
- half-life (P-glycoprotein (P-gp); 30 min before LVFX, blood): 40 ± 6.51 min
- AUC(0-t) (P-glycoprotein (P-gp); 30 min before LVFX, blood): 11100 ng·h/mL
- Kp ([1]; CSF / blood (unbound, microdialysate), AUCu,CSF/AUCu,blood, read-out: K p,uu,CSF): 0.424 ± 0.035
- Kp ([1]; brain ECF / blood, AUCu,ECF/AUCu,blood, read-out: K p,uu,ECF): 0.389 ± 0.024
Compound: C[C@H]1COc2c(N3CCN(C)CC3)c(F)cc3c(=O)c(C(=O)O)cn1c23 [LVFX, Levofloxacin]
